Data on 3 compounds can be found in patent US20260137697A1, “THIAZOLO[5,4-D]PYRIMIDINE COMPOUNDS, COMPOSITIONS COMPRISING THEM AND USES THEREOF” (University de Montreal, priority 2022, published 2026).

Common to all, as to format: cell-based, human
One experiment relates to pERK, NCIH1755 cells. Nature of the experiment: Phospho-ERK inhibition, AlphaLISA p-ERK 1/2, NCIH1755. The note with it: Table D-2; for IC50: NCIH1755 (BRAF G469A); for pERK value in parentheses, % inhibition (Ymin): NCIH1755, lowest point of IC50 curve. The method, then:
(§1) All cancer cell lines (A375, A101D, A2058, RKO, HT29 SK-MEL 30, IPC298, HepG2, HCT-116, Lovo, SW620, SW480, NCI-H358, NCI-H2122, Calu-6, NCIH2087, NCIH1755, NCIH1666 and Mewo) were obtained from ATCC and cultured in RPM1-1640 medium (Gibco) supplemented with 5% heat inactivated fetal bovine serum (FBS, Wisent) at 37° C. under 5% CO2. Cells were maintained in T175 flasks (Greiner). They were passaged by removing the culture medium, washing once in 10 mL of room temperature Phosphate Buffered Saline (PBS; Wisent) and incubating at 37° C. with 2 mL of 0.05% Trypsin (Thermo-Fisher). Trypsin was then inactivated by adding complete growth medium and the cells were then replated in a T175 culture dish at the appropriate dilution. All cell lines were routinely tested for mycoplasma contamination. Tissue type and mutational status of each cell line can be found in Table B.
(§2) (c) Measurement of Phospho-ERK Inhibition in Cultivated Human Cancer Cell Lines by the AlphaLISA® SureFire® Ultra™ p-ERK 1/2 (Thr2O2/Tyr204)
(§3) AlphaLISA® SureFire® Ultra™ p-ERK 1/2 (Thr202/Tyr204) analysis was conducted on cells plated in 100 μL of complete RPMI-1640 growth medium in 96-well flat-bottomed transparent dishes (Costar) at a density indicated in Table C. Cells were maintained overnight at 37° C. under 5% CO2 before treatment with compounds' dilution series for one hour. The cell density in cells/cm^2 corresponds to cell number divided by the area of one well of a 96-well plate (0.143 cm^2).
(§4) In a dilution series 100 μL/well of test substance dilution prepared in complete RPMI-1640 growth media was added to the cells. The dilution series is selected so that ten concentrations cover a range from 10 μM to 0.33 nM. If necessary, the initial concentration of 10 μM is increased to 100 μM or lowered to 1 μM (as in the case of A375 and H1666 cells, which are generally more sensitive to the compounds) and further dilution is carried out accordingly. The final concentration of DMSO in the assay is set at 0.5%.
(§5) After treatment, media was removed, and cells were lysed in 50 μL of 1× AlphaScreen Ultra Lysis Buffer (Perkin Elmer). The AlphaLISA® SureFire® Ultra™ p-ERK 1/2 (Thr202/Tyr204) (PerkinElmer) reactions were performed with 5 μL of cell lysate according to the manufacturer's specifications in 384-well proxyplates (Perkin Elmer) followed by overnight incubation of the reactions at room temperature in a humidified chamber. After completion of the reactions, the signals were recorded on an EnVision plate reader (Perkin Elmer) using built in AlphaLISA® settings.
(§6) The effect of each compound dilution on the pERK signal was expressed in % inhibition and calculated as follows. An internal 100% inhibition control (1 μM trametinib, cat. No. HY-10999; MedChem Express; CAS No. 871700-17-3) was included in each plate and used as a measure of pERK background. First, the value obtained for trametinib was subtracted from each data point. The average of DMSO (vehicle) controls (set as 0% inhibition) was established and used to calculate % inhibition:
(§7) The ability of each compound to inhibit pERK signal was expressed as an IC50 value obtained by plotting the inhibition values for each data point of a dilution series and fitting the obtained curves using a log(agonist) versus response—variable slope (four parameters) function using GraphPadPrism (V7.0) or Dotmatics Screening Ultra platform.
(§8) When present, paradoxical pERK induction is inferred from the negative % inhibition values observed in the pERK IC50 curves of a compound.
On the technique in general: In Alpha technology, singlet oxygen from a donor bead excites a nearby acceptor bead.

The next experiment relates to pERK, NCI-H2122 cells. The experiment is described as follows: Phospho-ERK inhibition, AlphaLISA p-ERK 1/2, NCI-H2122. To be noted: Table D-2; for IC50: NCI-H2122 (KRAS-G12C); for pERK value in parentheses, % inhibition (Ymin): NCI-H2122, lowest point of IC50 curve. The method, then: as §1, §2, §3, §4, §5, §6, §7, §8
The subject of the next experiment is pERK, Lovo cells. Nature of the experiment: Phospho-ERK inhibition, AlphaLISA p-ERK 1/2, Lovo. The note with it: Table D-2; for IC50: Lovo (KRAS-G13D); for pERK value in parentheses, % inhibition (Ymin): Lovo, lowest point of IC50 curve. The method, then:
as §1, §2, §3, §4, §5, §6, §7, §8

For the next experiment, the system named is HepG2 cells. Nature of the experiment: Proliferation inhibition, CellTiter-Glo, HepG2. The note with it: Table D-1, HepG2 (NRAS-Q61L), 3 days, read-out: Prolif. (proliferation EC50). The method, then:
as §1
(§9) CellTiter-Glo® viability analysis was conducted on cells plated in 100 μL of complete RPMI-1640 growth medium in 96-well flat-bottomed white opaque plates (Greiner or Croning) at a density indicated in Table E (for each CCL, number of cells plated per well of a 96-well plate to perform the CellTiter-Glo® cell viability assay). The cell density in cells/cm^2 would correspond to cell number divided by the area of one well of a 96-well plate (0.32 cm^2). […]
(§10) After 3 days of incubation, the growth media were removed by aspiration and 60 μL of diluted CellTiter-Glo® reagent (10 μL CellTiter-Glo® reagent+50 μL of PBS) was added to each well. […] Luminescence signals were then acquired on a Synergy Neo2 plate reader (Biotek).
(§11) The effect of each compound dilution on the proliferation of cancer cell lines was expressed in % inhibition and calculated as follows. […]
(§12) The ability of each compound to inhibit proliferation was expressed as a EC50 value obtained by plotting the effect values for each data point of a dilution series and fitting the obtained curves using a log(agonist) versus response—variable slope (four parameters) function using GraphPadPrism (V7.0) or Dotmatics Screening Ultra platform.

The next experiment relates to pERK, Calu6 cells. The experiment is described as follows: Phospho-ERK inhibition, AlphaLISA p-ERK 1/2, Calu-6. The note with it: Table D-2; for IC50: Calu6 (KRAS Q61K); for pERK value in parentheses, % inhibition (Ymin): Calu6, lowest point of IC50 curve. The method, then:
as §1, §2, §3, §4, §5, §6, §7, §8

The test system of a further experiment is RKO cells. Nature of the experiment: Proliferation inhibition, CellTiter-Glo, RKO. The note with it: Table D-1, RKO (BRAF V600E), 3 days, read-out: Prolif. (proliferation EC50). The method, then:
as §1, §9, §10, §11, §12

Read-outs that look alike come from different tables or passages of the source.

The term IC50 denotes the concentration that inhibits the measured activity by half. A high value points to weaker potency. In the case of `Cc1ccc2c(Nc3cccc(Cl)c3F)nccc2c1NC(=O)c1csc2c(N)ncnc12` [Belvarafenib, reference compound], the IC50 with pERK, NCIH1755 cells (Homo sapiens, NCI-H1755) was 30 to 300 nM; in the experiment on pERK, NCI-H2122 cells (Homo sapiens), 30 to 300 nM; in the experiment on pERK, Lovo cells (Homo sapiens), less than 30 nM; in the experiment on pERK, Calu6 cells (Homo sapiens, Calu-6), 30 to 300 nM. In addition, the “pERK value in parentheses, % inhibition (Ymin)” value (“pERK value … % inhibition (Ymin)” for short) in the experiment with pERK, NCIH1755 cells is on record as “(−79) %”; in the experiment on pERK, NCI-H2122 cells it was “(−9) %”; in the experiment with pERK, Lovo cells it was “(−12) %”; in the experiment with pERK, Calu6 cells, “(−39) %”. Also, the EC50 in the experiment on HepG2 cells (Homo sapiens, 72 h) was less than 300 nM; in the experiment with RKO cells (Homo sapiens, 72 h), less than 300 nM.

On to `N#CC1(c2cccc3c2ncn3-c2nc3c(Nc4c(F)ccc(NS(=O)(=O)c5cccc(Cl)c5Cl)c4F)ncnc3s2)CC1` [Example 122], for which the IC50 with pERK, NCIH1755 cells was less than 30 nM; in the experiment with pERK, NCI-H2122 cells, 30 to 300 nM; with pERK, Lovo cells, 30 to 300 nM; in the experiment with pERK, Calu6 cells it was 30 to 300 nM. The “pERK value … % inhibition (Ymin)” value in the experiment with pERK, NCIH1755 cells is given as “(11) %”; in the experiment on pERK, NCI-H2122 cells, “(27) %”; in the experiment on pERK, Lovo cells, “(13) %”; with pERK, Calu6 cells, “(−8) %”. The EC50 in the experiment on HepG2 cells and with RKO cells was less than 300 nM in each case.

For the compound `Cc1c(F)cccc1S(=O)(=O)Nc1ccc(F)c(Nc2ncnc3sc(-n4cc(C(=O)N5C6CCC5CN(C)C6)c5ccccc54)nc23)c1F` [Example 44], the IC50 was less than 30 nM in the experiment with pERK, NCIH1755 cells; 30 to 300 nM in the experiment with pERK, NCI-H2122 cells; 30 to 300 nM in the experiment with pERK, Lovo cells; less than 30 nM in the experiment with pERK, Calu6 cells. Besides, the “pERK value … % inhibition (Ymin)” value was “(−9) %” in the experiment with pERK, NCIH1755 cells; “(−11) %” in the experiment with pERK, NCI-H2122 cells; “(−10) %” in the experiment with pERK, Lovo cells; “(−12) %” in the experiment with pERK, Calu6 cells. Besides, the EC50 in the experiment on HepG2 cells and in the experiment on RKO cells was less than 300 nM each time.
